Laboratory results reported in US9427446B2, “Stable injectable composition containing diclofenac and thiocolchicoside” (EPIFARMA S.R.L., priority 2012, dated 2016).

Test: Suitability of BHT as antioxidant for a solution of diclofenac and thiocolchicoside (solubility/precipitation on storage)
Type: physicochemical
Settings: ordinary storage conditions

## Cc1cc(C(C)(C)C)c(O)c(C(C)(C)C)c1 [BHT, 2,6-bis(1,1-dimethylethyl)-4-methylphenol]
  Solubility / precipitation as antioxidant in a solution of diclofenac and thiocolchicoside: poor solubility and precipitation
